# Laboratory results as given in US20260042831A1, “METHODS OF TREATING SARCOIDOSIS WITH A TNF-A ANTIBODY AND ASSOCIATED COMPOSITIONS AND METHODS” (XENTRIA, INC., priority 2022, published 2026).
# Entries after “also recorded” stand apart in the source; their conditions may differ. Where two headings read alike, the source gives them in different places.
# Key:
# [1] = tested on: chronic refractory pulmonary sarcoidosis; settings: low- and high-dose IV infusion, at 24 weeks; cited from earlier work
# [2] = tested on: transgenic TC (TgTC) mice (rheumatoid arthritis model); assay: In vivo primary pharmacology: arthritis scores in TgTC mice; parameters: species or system mouse; settings: for arthritis scores compared to vehicle control: Day 29 and Day 43 (p<0.01)
# [3] = tested on: normal human tissues and human sarcoidosis tissue; assay: Tissue cross-reactivity study (GLP, immunohistochemistry on cryosections); type: binding; settings: for Tissues Showing Evidence of Staining: Sp2/0-Ag14 cells: negative control; for Tissues Showing Evidence of Staining: T3-33 (TNFα-expressing) cells: positive control, 5 and 20 μg/mL
# Method: Human tonsil, human lung and lymph node with sarcoidosis, and human small intestine with Crohn's disease were also included in the study.
# Samples from 1 to 3 separate donors from each of the listed tissues were evaluated. Fresh, unfixed tissue samples were placed into molds, filled with Tissue-Tek® OCT Compound, and frozen at −85 to −70° C. until sectioning. Sections were cut at approximately 5 μm and fixed in acetone for 10 minutes at room temperature. Human blood smears were stored at −85° to −70° C. until fixation and staining. XTMAB16 (primary antibody) was incubated overnight with biotinylated donkey anti-human IgG secondary labeled antibody. XTMAB16 and the control article, hIgG1, were tested at concentration of 5 and 20 μg/mL. Immunopathology was assessed by light microscopy.
# The following human tissues were assessed in this cross-reactivity study: • 1. Positive Control: • Cryosections of T3-33 (TNFα-expressing) cells • 2. Negative Control: • Cryosections of Sp2/0-Ag14 cells • 3. Ancillary Controls: • Cryosections of human tonsil (mononuclear cells; 2 donors) • Cryosections of human small intestine with Crohn's disease (mononuclear cells; 1 donor) • Cryosections of human lung with sarcoidosis (mononuclear cells; 1 donor) • Cryosections of human lymph node with sarcoidosis (mononuclear cells; 1 donor)
# [4] = tested on: TNFα, IL-1β, IFNγ release; assay: In vitro granuloma model of sarcoidosis: supernatant cytokine release (ELISA); settings: 30 minutes pre-treatment, 7 days following PPD
# Excerpt: (§1) PMBCs were exposed to either uncoated bead (UNC) or Mycobacterium tuberculosis (M. tb) antigen PPD-coated beads for 7 days. […] Following imaging, supernatant samples were collected and quantified for extracellular cytokine release using an enzyme-linked immunosorbent assay.
# [5] = tested on: PBMCs from subjects with active pulmonary sarcoidosis; assay: In vitro granuloma model of sarcoidosis: granuloma formation (MIPAR area fraction)
# Excerpt: as §1
# [6] = higher staining concentration (20 μg/mL), rare to occasional cells
# [7] = lower staining concentration (5 μg/mL)
substance,measurement,setting,value
Infliximab: a monoclonal antibody (mAb) targeting TNFα that is being used off-label to treat sarcoidosis,increase in predicted forced vital capacity,[1],2.5%
XTMAB-16: a chimeric (human/murine) IgG1 mAb directed against TNFα,arthritis scores compared to vehicle control,"[2]; 20 mg/kg/dose on Days 1, 15, 29",statistically significant improvement
same,arthritis scores compared to vehicle control,"[2]; 40 mg/kg/dose on Days 1, 15, 29",statistically significant improvement
same,"arthritis scores, 20 versus 40 mg/kg/dose",[2]; t test: p>0.05,no significant differences
same,Tissues Showing Evidence of Staining: Smooth myocytes,"[3]; adrenal, bladder, cerebellum, cerebral cortex, cervix, kidney, large intestine, liver, lymph node, lung, striated muscle, nerve, ovary, pancreas, placenta, prostate, parathyroid, skin, small intestine, spleen, stomach, testis, thymus, tonsil, uterus",Cytoplasm of vascular and/or intrinsic smooth
same,"Tissues Showing Evidence of Staining: mononuclear cells in human tonsil, small intestine with Crohn's disease, lung with sarcoidosis, lymph node with sarcoidosis",[3]; ancillary controls,Ancillary control tissues (+)
same,majority of non-mononuclear cell binding,[3]; binding observed at only the higher concentration in most tissues,low affinity
same,Tissues Showing Evidence of Staining: Epithelial cells,"[3]; esophagus, Fallopian tube, kidney, lung (bronchioles), pancreas (acini), pituitary, salivary gland, skin (sweat glands), stomach (mucosa)",Cytoplasm only of epithelial cells stained
same,mononuclear cell staining intensity in normal human tissues,[3]; higher concentration,weak to strong or weak to moderate
same,staining of membrane and cytoplasm of mononuclear cells in human tonsil,[3]; [6],weakly to strongly stained
same,"staining of mononuclear cells in small intestine with Crohn's disease, lung with sarcoidosis, lymph node with sarcoidosis",[3]; [6],weakly to strongly stained
same,Tissues Showing Evidence of Staining: Glomerular tuft cells,[3]; kidney,Cytoplasm of renal glomerular tuft cells
same,mononuclear cell staining in normal human tissues,"[3]; lower concentration, versus higher concentration","comparable, reduced, or no staining"
same,staining of mononuclear cells in human tonsil,[3]; [7],weak to strong and rare staining
same,"staining of mononuclear cells in small intestine with Crohn's disease, lung with sarcoidosis, lymph node with sarcoidosis",[3]; [7],weak to moderate and rare staining
same,Tissues Showing Evidence of Staining: Endothelial cells,[3]; lymph node,Cytoplasm of endothelial cells in the lymph node.
same,Tissues Showing Evidence of Staining: Myoepithelial cells,[3]; mammary gland,Membrane and cytoplasm of myoepithelial cells
same,Tissues Showing Evidence of Staining: Sp2/0-Ag14 cells,[3],Negative control cryosections (−)
same,Tissues Showing Evidence of Staining: Sp2/0-Ag14 cells,[3]; listed as XTMAB16,did not react specifically
same,Tissues Showing Evidence of Staining: Mononuclear cells,"[3]; normal human bladder, cervix, esophagus, large intestine, liver (Kupffer cells), lymph node, lung, pancreas, placenta (Hofbauer cells), parathyroid, salivary gland, skin, small intestine, spleen, stomach, thyroid, thymus, tonsil, uterus","stained the membrane and cytoplasm; also recorded: Membrane and cytoplasm of resident, migrating,"
same,Tissues Showing Evidence of Staining: T3-33 (TNFα-expressing) cells,[3],Positive control cells (+)
same,Tissues Showing Evidence of Staining: T3-33 (TNFα-expressing) cells,[3]; listed as XTMAB16,weak to strong membrane and cytoplasmic staining
same,granuloma cytokine release,[4],significant dose-response effect
same,IC50 for decrease in granuloma area fraction,[5],5.197 µg/mL
same,granuloma formation (area fraction),"[5]; 30 minutes pre-treatment (XTMAB-16 1 to 40 μg/mL; prednisone 1 to 10 μM), 7 days following PPD",significantly attenuated; also recorded: significant dose-response effect
same,IC50 for decrease in granuloma area fraction,"[5]; MIPAR area fraction, all subject samples, 7 days after PPD-coated beads",5.2 µg/mL
